Tested on: HEK293T and monoclonal lineage tracing cell line (iPE2(+) LT(+))
Experiment: Cell doubling time with or without Doxycycline
Format: cell-based
Text: (A). Cell doubling times measured for HEK293T and the monoclonal lineage tracing cell line (iPE2(+) LT(+)), with or without Doxycycline (Dox). […] P values were obtained using the two-tailed Student's t-test with Bonferroni correction: only *P<0.05 are shown. The center and error bars are mean and standard deviations, respectively, from n=3 independent experiments.

## C[C@H]1c2cccc(O)c2C(=O)C2=C(O)[C@]3(O)C(=O)C(C(N)=O)=C(O)[C@@H](N(C)C)[C@@H]3[C@@H](O)[C@@H]21 [Dox, Doxycycline hyclate]
  Effect on cell doubling time: lengthened the cell doubling time

Source: patent US20240355418A1, “MULTIPLEX, TEMPORALLY RESOLVED MOLECULAR SIGNAL RECORDER AND RELATED METHODS” (University of Washington, priority 2021, published 2024)
